Experimental data taken from patent US6653338B2 (Applied Research Systems ARS Holding N.A., priority 1998, dated 2003).
pEC50: −log10 of the molar value.

Assays:
[1] = molecular target: T1, recombinant FSH receptor stably transfected and expressed in Chinese Hamster Ovary cells (Homo sapiens, UniProt P23945); assay: FSH assay: CHO luciferase FSHR (CRE-luciferase reporter, LDR curves); assay type: cell-based; settings: FIG. 6, from the graph; duplicate samples; luciferase luminescence in CHO FSHR cells
T1 construct: expressed in transfected cells; host or cells: Chinese Hamster Ovary (CHO) cells, stably transfected, with CRE-luciferase reporter
T1 sequence (P23945 18-695): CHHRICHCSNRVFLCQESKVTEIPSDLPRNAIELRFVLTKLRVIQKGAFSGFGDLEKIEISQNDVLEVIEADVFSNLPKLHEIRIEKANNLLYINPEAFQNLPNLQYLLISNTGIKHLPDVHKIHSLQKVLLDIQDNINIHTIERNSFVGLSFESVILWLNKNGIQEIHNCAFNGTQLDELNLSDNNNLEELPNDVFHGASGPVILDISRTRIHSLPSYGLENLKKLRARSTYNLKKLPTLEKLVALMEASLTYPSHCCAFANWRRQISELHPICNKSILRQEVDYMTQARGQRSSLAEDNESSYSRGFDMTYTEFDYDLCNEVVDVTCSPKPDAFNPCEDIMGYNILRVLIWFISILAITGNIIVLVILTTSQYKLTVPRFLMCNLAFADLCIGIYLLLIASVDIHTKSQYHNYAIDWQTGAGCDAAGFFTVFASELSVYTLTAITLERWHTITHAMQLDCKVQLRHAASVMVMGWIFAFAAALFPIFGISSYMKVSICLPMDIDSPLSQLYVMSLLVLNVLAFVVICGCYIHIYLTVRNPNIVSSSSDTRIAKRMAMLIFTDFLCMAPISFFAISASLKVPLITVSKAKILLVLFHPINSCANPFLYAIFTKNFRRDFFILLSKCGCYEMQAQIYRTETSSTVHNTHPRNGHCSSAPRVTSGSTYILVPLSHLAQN
Excerpt: Compounds were screened for agonist activity at the FSH receptor using the recombinant FSH receptor stably transfected and expressed in Chinese Hamster Ovary cells (CHO cells) essentially as described in the work by Kelton, et al. (Molecular and Cellular Endocrinology, 1992, 89, 141-151). […] An agonist at the FSH receptor increases cAMP in the cell, which results in activation of CREB (cAMP response element binding protein). This molecule interacts with the CRE element upstream of the gene and results in increased transcription of the genes downstream of the element. The substrate for luciferase (Packard Instrument Company, Meriden, Conn., U.S.A.) was added to the cells after appropriate incubation with the compounds of the invention or FSH (used as a positive control). The amount of luciferase expressed was measured by quantitating the luminescence produced by the enzyme using a TopCount scintillation/luminescence counter running in single photon counting mode. A compound that acts as an agonist at the receptor should produce light from the treated cells in proportion to its concentration within the incubation. Luminescence should be saturable at high concentrations of the compound.
The compounds of the invention, in deepwell plates (Master plates) were loaded on the robotic deck along with the appropriate number of assay plates and daughter plates. A 10 μl aliquot from each master plate was transferred to the corresponding daughter plate and 90 μl of DME/F12 was added and mixed within each well. 20 μl was then removed from the daughter plate and dispensed into the assay plate. […] 100 μl of Luclite (prepared as described by the manufacturer) was added to each well and the plate was shaken gently for 40 s prior to placement in the Topcount plate reader. After allowing 3.5 min for the plate to dark-adapt within the machine, the amount of luminescence generated was quantitated using Single Photon Counting mode. […]

[2] = system: primary rat granulosa cells; assay: primary rat granulosa cell bioassay (estradiol production by RIA); assay type: cell-based; settings: FIG. 7; for estradiol production versus dose: concentrations between 200 nM and 5 μM, decrease in production above this concentration; for pEC50: Rattus norvegicus, estradiol in cell supernatants by RIA, read-out: EC50 of stimulated estradiol production
Protocol: In this in vitro assay, conversion of androstendione to estrogen by granulosa cells in the presence of FSH was measured for compounds XVI and XVII. For comparison, FSH was also tested in the assay.
Cells were plated at 5000, 8000, 10,000 and 20,000 cells/ well/ 200 μl of GAB medium on poly-D-lysine-coated 96-well tissue culture plates. Plates were incubated at 37° C. in a 5% CO2/95% air incubator for 3 days. Cultures were washed prior to stimulation with FSH or LH. 50 μl of 4 X concentrations of rhFSH, rhLH or forskolin was added to the cultures. To define the range of the dose response curve the rhFSH was diluted so that the final concentration on the cells was between 10^−7 to 10^−15 M with three doses per log at 1, 2 and 5. Forskolin was diluted so that the final concentration on the cells was 1 μM. Cells were incubated @ 37° C. in 5% CO2. Three days later, cell supernatants were collected and diluted 1:100 in GAB medium for measurement of estradiol by RIA. The RIA was performed according to manufacturer's directions except that an estradiol standard was prepared in absolute ethanol at 100 ng/mL and then further diluted in GAB medium, instead of kit buffer. The concentration of hormone was plotted on the X-axis against the amount of estradiol produced by the cells on the Y-axis using Origin graphics software.
Results of the assay using media only are also shown.

EC50 [1] [µM]	pEC50 [2]	Structure (SMILES)	estradiol production versus dose [2]
1.12		CCCCCc1ccc(C(=O)N2CC(O)CC2C(=O)Nc2ccc3c(c2)c2ccccc2n3CC)c(=O)o1 (stereo not shown) [compound XIX, 1-[(2-Oxo-6-pentyl-2H-pyran)-3-carbonyl]-4-hydroxypyrrolidine2-carboxylic acid-3-(9-ethylcarbazolyl)amide]	
0.0388	5.85	CCCCCc1ccc(C(=O)N2CCCC2C(=O)Nc2ccc3c(c2)c2ccccc2n3CC)c(=O)o1 (stereo not shown) [compound XVI, 1-[(2-Oxo-6-pentyl-2H-pyran)-3-carbonyl]pyrrolidine-2-carboxylic acid-3-(9-ethylcarbazolyl)amide]	increasing estradiol production with increasing dose
0.0039	5.92	CCCCCc1ccc(C(=O)N2CCCCC2C(=O)Nc2ccc3c(c2)c2ccccc2n3CC)c(=O)o1 (stereo not shown) [compound XVII, 1-[(2-Oxo-6-pentyl-2H-pyran)-3-carbonyl]piperidine-2-carboxylic acid-3-(9-ethylcarbazolyl)amide]	increasing estradiol production with increasing dose
